Read-outs that look alike come from different tables or passages of the source.
Key:
[1] = biological target: T1, hCB2R (Homo sapiens, UniProt P34972); experiment: PathHunter β-arrestin2 recruitment assay in CHO cells; type: cell-based
T1 construct: host or cells: HitHunter CHO-K1 cells
Protocol: Compounds FG158a, FG160a, FG161a, and LV62 were also evaluated for their ability to recruit β-arrestin2, since G protein-coupled receptors also interact with β-arrestin, which facilitates receptor internalization, recycling, degradation, and signaling.
(§1) CHO cells stably expressing hCB1R or hCB2R were maintained at 37 °C and 5% CO2 in Gibco Ham’s F-12 nutrient mix (Fisher Scientific, Loughborough, UK ) supplemented with 2 mM L-glutamine, 10% fetal bovine serum (FBS), 0.6% penicillin−streptomycin (Fisher Scientific, Loughborough UK), and the disulfate salt of geneticin (G418) as previously described (Sigma-Aldrich, Poole, UK). For subsequent radioligand displacement assays, membranes were prepared by scraping cells from flasks, centrifuging the cells, and storing the cell pellet at −20 °C. When required for us, cell pellets were defrosted and diluted in tris buffer (50 mM Tris-HCl and 50 mM Tris-base). As we have described in previous studies, HitHunter (cAMP) and PathHunter (βarrestin2) CHO-K1 cells stably expressing hCB1R or hCB2R from DiscoveRx® (Eurofins, Fremont, CA, USA) were maintained at 37 °C, 5% CO2 in F-12 DMEM containing 10% FBS and 1% Pen/Strep with 800 µg/mL geneticin (HitHunter) or 800 µg/mL G418 and 300 µg/mL hygromycin B (PathHunter).
The quantification of β-arrestin2 recruitment using the DiscoveRx PathHunter assay has been described by our group previously and is summarized here.. Twenty thousand cells/well were grown overnight in Opti-MEM containing 1% FBS at 37 °C and 5% CO2 in low-volume 96 well plates. The next day, cells were treated with compounds for 90 min at 37 °C. Detection solution was added to cells according to the manufacturer’s directions (DiscoveRx) and cells were stored for 60 min at room temperature. After this incubation, chemiluminescence was quantified on a Cytation5 plate reader (top read, gain 200, integration time 10,000 ms).
(§2) Estimates of Ki, EC50, and Emax were determined using non-linear regression three-parameters (GraphPad, Prism, v. 9.0).
(§3) Data are fitted to a non−linear regression (three parameter model, GraphPad v. 9.0). Data are mean ± S.E.M. of 6 independent experiments performed in triplicate.

[2] = test system: SH-SY5Y cells; experiment: Sulforhodamine B (SRB) cell viability assay; type: cell-based, human; conditions: for effect on cell viability: 24 h, 48 h and 72 h, 2.5–40 µM; for IC50: Homo sapiens, 72 h of treatment, SRB, cis/trans mixture
Protocol: We tested the anti-proliferative activity of the novel CB2R agonists FG158a, FG160a, FG161a, and LV62 in neuroblastoma cell lines (Figure 4). The compounds were assayed as a mixture of cis and trans isomers. […] After 72 h of treatment, the effect was higher and could also be observed at lower concentrations. The inhibitory effect was confirmed in another neuroblastoma cell line, SK-N-BE cells.
Human neuroblastoma SHSY5Y and SK-N-BE cell lines were grown in DMEM (GIBCO, Paisley, UK) and MEM (Sigma-Aldrich, St.Louis, MO, USA), respectively, supplemented with 2 mM l-glutamine, […], 50 units/mL penicillin and 10% heat-inactivated fetal bovine serum (FBS) in a humidified atmosphere (5% CO2 at 37 °C). Cells were detached as previously described with 0.25% trypsin (Sigma-Aldrich) at 70–80% confluence.
(§4) Cells seeded for 24 h in triplicate in 96-well plates at a density of 8000 cells/well were left to adhere overnight. CB2R agonists were added to the culture in triplicate at concentrations ranging from 2.5–40 µM. After 24 h, 48 h, and 72 h, cells were fixed, shaking for 2 h at 4 °C with 50% v/v trichloroacetic acid and washed with distilled water. Cells left overnight to dry were stained with 0.4% w/v SRB in 1% v/v acetic acid (at room temperature for 30 min on a shaker) and then washed with 1% acetic acid to allow for the removal of the unbound dye. TRIS-HCl 10 mM, pH 7.4 was added to the cells and absorbance was measured at 495 nm as previously shown using a Glomax® Discover Microplate Reader (Promega, Madison, WI, USA). In combinatory assays, similar procedures were adopted and the CB2R antagonist SR144528 (1 µM) was added 1 h before the CB2 agonists (10, 20 and 40 µM) to SHSY5Y cells that were harvested as described above after 72 h of incubation.
Figure 4 Inhibition of cell viability. The effect on cell viability by CB2R agonists was determined by sulforhodamine B (SRB) assays in SH-SY5Y and SK-N-BE cell lines. SH-SY5Y cells were treated with the compounds indicated in the figure for 24 h (A), 48 h (B), and 72 h (C) at the concentrations reported in the histograms. SK-N-BE cells were treated with the same compounds for 72 h (D). Figures report cell viability (mean of at least 3 independent experiments ± SEM) as percent of cell survival vs. untreated cells (considered as 100% of survival). […] The statistical significance was calculated with two-way ANOVA using Dunnett’s multiple comparisons test.

[3] = biological target: T2, hCB1R (Homo sapiens, UniProt P21554); experiment: [3H]CP55,940 radioligand displacement assay, CHO cell membranes; type: binding; conditions: for displacement of [3H]CP55,940 at hCB1R: CHO membranes, 0.1 nM-10 μM compounds
T2 construct: expressed in transfected cells; host or cells: CHO cells (membranes)
Protocol: as §1
(§5) We have previously described radioligand displacement assays in detail. […] Binding reactions were terminated by ice-cold tris binding buffer and subsequent vacuum filtration (24-well sampling manifold (Brandel cell harvester; Brandel Inc., Gaithersburg, MD, USA)) using Brandel GF/B filters soaked in wash buffer at 4 °C for at least 24 h. Filters were washed with 1.2 mL of tris-binding buffer six times, then oven-dried for 60 min before being incubated in 3 mL of scintillation fluid (Ultima Gold XR, PerkinElmer, Seer Green, Buckinghamshire, UK). Radioactivity was quantified by liquid scintillation spectrometry. All compounds were first prepared at 10 mM solutions in DMSO. The final vehicle concentration for assays was 0.1% DMSO. All assays were performed in duplicate.
as §2

[4] = biological target: T1, hCB2R; experiment: as above; type: binding; conditions: for displacement of [3H]CP55,940 at hCB2R: CHO membranes, 0.1 nM-10 μM compounds
Protocol: as §1, §5, §2

[5] = biological target: T1, hCB2R; experiment: HitHunter cAMP assay: inhibition of FSK-stimulated cAMP accumulation in CHO cells; type: cell-based; conditions: for modulation of cAMP response: CHO cells expressing hCB2R
Protocol: For the cAMP inhibition assay, cells were treated with 10 μM FSK and synthetized compounds for 90 min to assess compound concentration-dependent activity.
as §1
The quantification of FSK-stimulated cAMP accumulation using the DiscoveRx HitHunter assay (DiscoveRx, Eurofins, Fremont, CA, USA) has been described in detail previously elsewhere. Briefly, 20,000 cells/well were plated in low-volume 96-well plates and incubated overnight in Opti-MEM with 1% FBS at 37 °C and 5% CO2. The next day, the media were replaced with cell assay buffer (DiscoveRx). Immediately after this, the cells were simultaneously treated with 10 µM FSK and ligands for 90 min. Subsequent additions of cAMP antibody solution and cAMP working detection solutions followed the manufacturer’s directions (DiscoveRx) and cells were stored for 60 min at room temperature. cAMP solution A (DiscoveRx) was added according to the manufacturer’s directions followed by another 60 min room temperature incubation prior to chemiluminescence being measured on a Cytation5 plate reader (top read, gain 200, integration time 10,000 ms).
as §2, §3

[6] = test system: SH-SY5Y cells; experiment: SRB cell viability assay with pre-incubation of CB2R antagonist SR144528; type: cell-based, human; conditions: SR144528 1 µM added 1 h before, 72 h, agonists at 10, 20 and 40 µM
Protocol: To address a CB2R-mediated mechanism, we tested FG158a, LV62, and FG160a at inhibitory concentrations in SH-SY5Y cells pre-incubated with the CB2R antagonist SR144528. After 72 h of treatment, we observed a reversion in cell viability at 20 and 40 µM of FG158a and FG160a in the presence of SR144528. The inhibitory effect of LV62 was reverted only at 40 µM (Figure 5).
as §4, with “In combinatory assays, similar procedures were adopted and the CB2R antagonist SR144528 (1 µM) was added 1 h before the CB2 agonists (10, 20 and 40 µM) to SHSY5Y cells that were harvested as described above after 72 h of incubation.” left out
Figure 5 CB2R–mediated effect on cell viability. […] Figures (A–C) report cell viability (mean of 3 independent experiments) expressed as absorbance (Abs). The statistical significance was calculated with two-way ANOVA using Tukey’s multiple comparisons test (* p ≤ 0.05).

[7] = test system: SH-SY5Y cells; parameters: method as in PMID 26842917; conditions: presumably via a CB2R-independent mechanism; cited from earlier work
[8] = CHO cells expressing human CB2R, 90 min
[9] = CHO cells expressing human CB2R, 10 μM FSK, 90 min

T2 sequence (P21554 whole entry): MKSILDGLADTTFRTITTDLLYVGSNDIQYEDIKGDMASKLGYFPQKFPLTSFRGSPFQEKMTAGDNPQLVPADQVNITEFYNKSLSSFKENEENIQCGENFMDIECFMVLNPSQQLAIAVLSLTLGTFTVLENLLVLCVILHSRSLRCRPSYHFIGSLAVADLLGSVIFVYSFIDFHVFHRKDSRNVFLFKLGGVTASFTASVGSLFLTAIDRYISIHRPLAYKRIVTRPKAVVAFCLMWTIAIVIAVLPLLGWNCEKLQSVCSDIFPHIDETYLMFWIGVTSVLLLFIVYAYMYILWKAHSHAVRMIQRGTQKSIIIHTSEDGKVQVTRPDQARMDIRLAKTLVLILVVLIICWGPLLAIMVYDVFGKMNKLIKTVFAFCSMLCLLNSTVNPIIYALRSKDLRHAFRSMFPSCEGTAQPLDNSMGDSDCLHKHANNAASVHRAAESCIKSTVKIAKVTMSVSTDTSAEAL
T1 sequence (P34972 whole entry): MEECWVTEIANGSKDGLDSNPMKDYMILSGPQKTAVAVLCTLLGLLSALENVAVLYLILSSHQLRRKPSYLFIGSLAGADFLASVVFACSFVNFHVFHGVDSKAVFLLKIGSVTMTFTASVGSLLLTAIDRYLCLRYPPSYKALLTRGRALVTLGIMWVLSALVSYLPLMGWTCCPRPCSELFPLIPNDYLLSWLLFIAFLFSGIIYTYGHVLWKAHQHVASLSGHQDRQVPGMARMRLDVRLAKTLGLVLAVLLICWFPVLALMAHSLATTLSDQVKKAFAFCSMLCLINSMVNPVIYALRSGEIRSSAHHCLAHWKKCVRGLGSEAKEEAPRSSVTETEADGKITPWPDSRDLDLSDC

Compound | melting point [°C] | β-Arrestin2 Recruitment Emax (% CP55,940) ± S.E.M [1, 8] | EC50 ([1]; CHO cells expressing human CB2R, 90 min, read-out: β-Arrestin2 Recruitment EC50 (95% C.I.)) [nM] | effect on cell viability [2] | IC50 [2] [nM] | displacement of [3H]CP55,940 at hCB1R [3] | Ki ([3]; read-out: CB1R Ki) [nM] | Ki [4] [nM] | displacement of [3H]CP55,940 at hCB2R [4] | modulation of cAMP response ([5]; 10 μM FSK, 90 min) | cAMP Inhibition Emax (% CP55,940) ± S.E.M [5, 9] | EC50 ([5]; CHO cells expressing human CB2R, 10 μM FSK, 90 min, read-out: cAMP Inhibition EC50 (95% C.I.)) [nM] | reversion in cell viability in the presence of SR144528, agonist concentration [6] | EC50 [1] [nM] | β-arrestin2 recruitment ([1]; CHO cells expressing hCB2R, 90 min) | Ki [3] [nM] | EC50 [5] [nM] | effect on SH-SY5Y cell proliferation [7]
CC1CCC(NC(=O)c2cc3cccnc3n(CCCCCN=[N+]=[N-])c2=O)CC1 (stereo not drawn) [FG161a, 1-(5-azidopentyl)-N-(4-methylcyclohexyl)-2-oxo-1,2-dihydro-1,8-naphthyridine-3-carboxamide] | 115 to 117 | 47 ± 1.8 % CP55,940 | > 10000 | inhibited cell viability | 27500 | not able to displace [^3H]CP55,940 | > 10000 | 45 | fully displaced [^3H]CP55,940 | able to modulate the cAMP response | 78 ± 11 % CP55,940 | 760 |  |  |  |  |  | 
CC1CCC(NC(=O)c2cc3cccnc3n(CCCCCO)c2=O)CC1 (stereo not drawn) [LV62, reference compound] |  | 65 ± 1.4 % CP55,940 |  | inhibited cell viability | 38100 | not able to displace [^3H]CP55,940 |  | 37 |  |  | 110 ± 8.8 % CP55,940 |  | only at 40 | 63 | produced an increase in the β-arrestin2 recruitment | > 10000 | 34 | 
CCCC(C)(C)c1ccc2c(c1)OC(C)(C)[C@@H]1CC=C(C)C[C@@H]21 [JWH-133] |  |  |  |  |  |  |  |  |  |  |  |  |  |  |  |  |  | inhibits SH-SY5Y cell proliferation
CC1CCC(NC(=O)c2cc3cccnc3n(CCCCCCl)c2=O)CC1 (stereo not drawn) [FG160a, 1-(5-chloropentyl)-N-(4-methylcyclohexyl)-2-oxo-1,2-dihydro-1,8-naphthyridine-3-carboxamide] | 124 to 126 | 41 ± 1.0 % CP55,940 |  | inhibited cell viability | 13200 | not able to displace [^3H]CP55,940 |  | 16.5 | fully displaced [^3H]CP55,940 | able to modulate the cAMP response | 90 ± 3.1 % CP55,940 |  |  | > 10000 |  | > 10000 | 600 | 
